Measurements: US4963565A, “In vivo treatment of mycobacterial infections with 6-cyclo octylamino-5,8-quinoline quinone” (priority 1986, dated 1990)

What was measured:
[1] = test system: macrophages; assay: Cytotoxicity to macrophages (Table 3 footnote); type: cell-based, human; settings: Sample I; 200 NG/ML (cell printed *)
Description: (§1) Blood from a healthy volunteer was drawn and monocytes were removed and cultured to the macrophage stage. This required about 7 days. The macrophages were then exposed to M. leprae bacilli obtained from biopsy specimens of leprosy patients. One sample was exposed to CQQ, while other samples were exposed to DDS (diaminodiphenyl sulphone), the standard antileprosy drug, or rifampin, at various concentrations. Macrophages were exposed to radiolabelled tritium (^3 H) labeled thymidine, and its uptake was measured using a liquid scintillation counter. A control model of M. leprae exposed macrophages, which was not treated was used as well. The uptake of thymidine is a measure of antimycobacterial activity.

[2] = test system: Mycobacterium intracellulare strain 571-8; assay: In vivo chemotherapeutic activity against M. intracellulare, acute model in Beige mice (Example 1); parameters: species or system M. intracellulare (host: Beige mice, C57Bl/6/bg/bg); settings: FIG. 1
[3] = test system: M. intracellulare 571-8; assay: In vivo effectiveness against chronic M. intracellulare infections in C57Bl/6 mice (Examples IV and V); parameters: species or system M. intracellulare (host: C57Bl/6 mice)
[4] = test system: Mycobacterium leprae; assay: Inhibitory activity against Mycobacterium leprae in the macrophage model (3H thymidine uptake); type: cell-based, M. leprae (in human monocyte derived macrophages); parameters: Inhibition of 3H thymidine uptake: dose or concentration left out as unconfirmed
Description: The effect of CQQ on Mycobacterium leprae, the causative agent for leprosy, was studied using monocyte derived macrophages obtained from human volunteers.
as §1

[5] = test system: M. intracellulare (571-8 strain); assay: In vivo activity of different doses against acute M. intracellulare infections in Beige mice (Example III); parameters: species or system M. intracellulare (host: Beige mice)

O=C1C(NC2CCCCCCC2)=CC(=O)c2ncccc21 [CQQ, 6-cyclo octylamino-5,8-quinoline quinone]
Cytotoxic to macrophages [1]: CYTOTOXIC TO MACROPHAGES
Activity vs infected untreated control ([2]; 10 mg/kg orally daily, each time point (P 0.05)): considerable activity with a statistically significant difference
Activity compared with ansamycin ([2]; both 10 mg/kg orally daily): better than that of ansamycin
Duration of statistically significant difference vs control ([3]; Example IV, 10 mg/kg (P 0.05)): up to 3 weeks
Reduction in CFU counts in spleen and lungs vs untreated control ([3]; Example IV, 10 mg/kg, followed for 28 days, FIG. 5): considerable reduction in CFU counts both in spleen and lungs
In vivo antimycobacterial activity in the chronic infection ([3]; Example V, FIG. 6): considerable in vivo antimycobacterial activity
Counts per minute (3H thymidine uptake) ([4]; Sample I, 5 NG/ML): 2.4 COUNTS PER MINUTE
Counts per minute (3H thymidine uptake) ([4]; Sample I, 25 NG/ML): 93 COUNTS PER MINUTE
Counts per minute (3H thymidine uptake) ([4]; Sample I, 50 NG/ML): 93 COUNTS PER MINUTE
Counts per minute (3H thymidine uptake) ([4]; Sample I, 100 NG/ML): 84 COUNTS PER MINUTE
Counts per minute (3H thymidine uptake) ([4]; Sample I, CQQ 10 NG/ML): 2.3 COUNTS PER MINUTE
Counts per minute (3H thymidine uptake) ([4]; Sample II, 5 NG/ML): 6 COUNTS PER MINUTE
Counts per minute (3H thymidine uptake) ([4]; Sample II, 25 NG/ML): 69 COUNTS PER MINUTE
Counts per minute (3H thymidine uptake) ([4]; Sample II, 50 NG/ML): 76 COUNTS PER MINUTE
Counts per minute (3H thymidine uptake) ([4]; Sample II, 100 NG/ML): 76 COUNTS PER MINUTE
Counts per minute (3H thymidine uptake) ([4]; Sample II, 200 NG/ML): 91 COUNTS PER MINUTE
Counts per minute (3H thymidine uptake) ([4]; Sample II, CQQ 10 NG/ML): 13 COUNTS PER MINUTE
Counts per minute (3H thymidine uptake) ([4]; Sample III, 5 NG/ML): 2 COUNTS PER MINUTE
Counts per minute (3H thymidine uptake) ([4]; Sample III, 25 NG/ML): 37 COUNTS PER MINUTE
Counts per minute (3H thymidine uptake) ([4]; Sample III, CQQ 10 NG/ML): 2 COUNTS PER MINUTE
Activity with another strain of M. leprae ([4]; another strain): even greater activity
Antileprosy activity ([4]; conclusion from Table 3): considerable antileprosy activity
Inhibition of 3H thymidine uptake ([4]; two strains of M. leprae): significant inhibition
Dose comparison, 20 vs 10 mg/kg ([5]; 20 mg/kg vs 10 mg/kg): The dose of 20 mg/kg is better than 10 mg/kg dose
Inhibitory activity, reduction of CFU counts from spleens and lungs ([5]; 10 or 20 mg/kg, FIGS. 3 and 4): considerable inhibitory activity
Duration of statistically significant differences in CFU counts ([5]; 10 or 20 mg/kg, spleens and lungs (P 0.05)): up to 6 weeks
Effect in lung vs spleen ([5]; FIG. 4 vs FIG. 3): more pronounced in the lung (FIG. 4) than in the spleen
